Test results published in ChEMBL document CHEMBL6083277, “Discovery of SZJK-0421: A Novel Potent, Low Toxicity, Selective Second Generation of CRM1 Inhibitor for the Treatment of Both Hematological and Solid Tumors” (J Med Chem, 2024).
The source made the active and inactive calls. The calls are words filed in the database; no cut-off is given here.

Columns and labels:
[1] = Toxicity in Sprague-Dawley rat at 30 mg/kg, po measured upto 48 hrs; assay type: organism-based; settings: in vivo
MM1.S [2] = assay: Induction of apoptosis in human MM1.S cells at 0.5 to 1 uM incubated for 48 hrs by Annexin V-FITC/PI staining based flow cytometry analysis; assay type: functional, cell-based; settings: dose 0.5-1 µM
MV4-11 = assay: Antiproliferative activity against human MV4-11 cells assessed as inhibition of cell growth incubated for 72 hrs by celltiter-glo assay; assay type: functional, cell-based; settings: MV4-11, 72 h
[3] = Antiproliferative activity against human ARP-1 cells assessed as inhibition of cell growth incubated for 72 hrs by celltiter-glo assay; assay type: functional, cell-based; settings: ARP-1, 72 h
[4] = Toxicity in NOD-SCID mouse assessed as decrease in villus height to crypt depth ratio at 15 to 60 mg/kg, po measured every 2 days for 21 days by H and E staining based analysis; assay type: organism-based; settings: in vivo, 504 h, dose 15-60 mg/kg, time 21 day
MOLM-13 = assay: Antiproliferative activity against human MOLM-13 cells assessed as inhibition of cell growth incubated for 72 hrs by celltiter-glo assay; assay type: functional, cell-based; settings: MOLM-13, 72 h
[5] = Toxicity in NOD-SCID mouse assessed as hyperplasia of crypt in intestine at 15 to 60 mg/kg, po measured every 2 days for 21 days by H and E staining based analysis; assay type: organism-based; settings: in vivo, 504 h, dose 15-60 mg/kg, time 21 day
[6] = Metabolic stability in monkey liver microsomes assessed as intrinsic clearance measured upto 60 mins in presence of NADPH by LC/MS-MS analysis; assay type: ADME, Macaca mulatta, Microsome; settings: rhesus monkey, read-out: CLH
[7] = Toxicity in BALB/c mouse assessed as shortened intestinal tract at 90 to 120 mg/kg, po administered once daily for 21 days; assay type: organism-based; settings: in vivo, 504 h, dose 90-120 mg/kg, time 21 day
[8] = AUC (0 to t) in male Sprague-Dawley rat at 2 mg/kg, iv measured upto 30 hrs by LC-MS/MS analysis; assay type: ADME, organism-based; settings: in vivo
[9] = target: Exportin-1 (Homo sapiens) (UniProt O14980); assay: Inhibition of CRM1 in human MM1.S cells assessed as accumulation of p53 protein level at 0.5 to 1 uM incubated for 24 hrs by Western blot analysis; assay type: cell-based; settings: dose 0.5-1 µM
Chain of Exportin-1 (Homo sapiens) (O14980 whole entry): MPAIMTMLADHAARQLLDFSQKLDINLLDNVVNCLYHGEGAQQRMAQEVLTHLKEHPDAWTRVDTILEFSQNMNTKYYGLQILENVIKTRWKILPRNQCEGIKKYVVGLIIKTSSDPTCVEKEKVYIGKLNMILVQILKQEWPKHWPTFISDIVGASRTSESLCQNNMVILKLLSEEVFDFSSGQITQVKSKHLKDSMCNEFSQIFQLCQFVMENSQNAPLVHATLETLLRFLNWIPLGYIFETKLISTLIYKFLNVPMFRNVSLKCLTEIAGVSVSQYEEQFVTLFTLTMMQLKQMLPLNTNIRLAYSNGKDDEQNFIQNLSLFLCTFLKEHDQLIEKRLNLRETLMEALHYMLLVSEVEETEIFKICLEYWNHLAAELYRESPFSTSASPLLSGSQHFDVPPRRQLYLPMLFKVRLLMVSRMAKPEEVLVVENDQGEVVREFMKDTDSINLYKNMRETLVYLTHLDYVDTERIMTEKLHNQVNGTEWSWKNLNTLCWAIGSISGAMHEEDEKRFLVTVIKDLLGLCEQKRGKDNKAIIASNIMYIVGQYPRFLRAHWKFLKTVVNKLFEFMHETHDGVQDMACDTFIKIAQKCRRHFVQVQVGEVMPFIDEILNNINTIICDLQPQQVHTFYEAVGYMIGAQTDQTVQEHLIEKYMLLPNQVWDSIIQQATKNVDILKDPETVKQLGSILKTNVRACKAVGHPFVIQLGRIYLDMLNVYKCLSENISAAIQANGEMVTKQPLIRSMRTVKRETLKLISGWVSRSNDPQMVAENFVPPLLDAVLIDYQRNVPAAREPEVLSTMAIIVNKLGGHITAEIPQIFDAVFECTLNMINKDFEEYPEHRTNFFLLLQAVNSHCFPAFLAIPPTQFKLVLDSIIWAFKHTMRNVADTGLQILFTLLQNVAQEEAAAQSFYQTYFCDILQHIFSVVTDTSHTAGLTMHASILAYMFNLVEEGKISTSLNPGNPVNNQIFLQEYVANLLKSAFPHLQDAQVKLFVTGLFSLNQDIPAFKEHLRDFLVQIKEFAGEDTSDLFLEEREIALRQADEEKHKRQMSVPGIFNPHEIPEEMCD

LAMA-84 = assay: Antiproliferative activity against human LAMA-84 cells assessed as inhibition of cell growth incubated for 72 hrs by celltiter-glo assay; assay type: functional, cell-based; settings: LAMA-84, 72 h
[10] = Toxicity in NOD-SCID mouse assessed as loss of crypt depth in intestine at 15 to 60 mg/kg, po measured every 2 days for 21 days by H and E staining based analysis; assay type: organism-based; settings: in vivo, 504 h, dose 15-60 mg/kg, time 21 day
[11] = Toxicity in NOD-SCID mouse implanted with human ARH-77 cells assessed as change in body weight at 15 to 60 mg/kg, po measured every 2 days for 21 days; assay type: organism-based; settings: in vivo, 504 h, dose 15-60 mg/kg, time 21 day
[12] = Cmax in male Sprague-Dawley rat at 10 mg/kg, po measured upto 30 hrs by LC-MS/MS analysis; assay type: ADME, organism-based; settings: in vivo
[13] = AUC (0 to t) in male Sprague-Dawley rat at 15 mg/kg, po measured upto 30 hrs by LC-MS/MS analysis; assay type: ADME, organism-based; settings: in vivo
[14] = Toxicity in NOD-SCID mouse implanted with human HCT-116 cells assessed as body weight loss at 60 mg/kg, po measured every 2 days for 21 days; assay type: organism-based; settings: in vivo, 504 h, time 21 day
[15] = AUC (0 to t) in male Sprague-Dawley rat at 10 mg/kg, po measured upto 30 hrs by LC-MS/MS analysis; assay type: ADME, organism-based; settings: in vivo
SW872 = assay: Antiproliferative activity against human SW872 cells assessed as inhibition of cell growth incubated for 72 hrs by celltiter-glo assay; assay type: functional, cell-based; settings: SW872, 72 h
[16] = AUC in male Sprague-Dawley rat plasma at 10 mg/kg, IG measured at 6 hrs by LC-MS/MS analysis; assay type: ADME, organism-based; settings: po
[17] = Half life in male Sprague-Dawley rat at 10 mg/kg, po measured upto 30 hrs by LC-MS/MS analysis; assay type: ADME, organism-based; settings: in vivo
[18] = Toxicity in BALB/c mouse assessed as shortened intestine at 90 to 120 mg/kg, po administered once daily for 21 days; assay type: organism-based; settings: in vivo, 504 h, dose 90-120 mg/kg, time 21 day
[19] = target: Voltage-gated inwardly rectifying potassium channel KCNH2 (Homo sapiens, UniProt Q12809); assay: Inhibition of hERG in HEK293 cells; assay type: toxicity, cell-based
Chain of Voltage-gated inwardly rectifying potassium channel KCNH2 (Q12809 whole entry): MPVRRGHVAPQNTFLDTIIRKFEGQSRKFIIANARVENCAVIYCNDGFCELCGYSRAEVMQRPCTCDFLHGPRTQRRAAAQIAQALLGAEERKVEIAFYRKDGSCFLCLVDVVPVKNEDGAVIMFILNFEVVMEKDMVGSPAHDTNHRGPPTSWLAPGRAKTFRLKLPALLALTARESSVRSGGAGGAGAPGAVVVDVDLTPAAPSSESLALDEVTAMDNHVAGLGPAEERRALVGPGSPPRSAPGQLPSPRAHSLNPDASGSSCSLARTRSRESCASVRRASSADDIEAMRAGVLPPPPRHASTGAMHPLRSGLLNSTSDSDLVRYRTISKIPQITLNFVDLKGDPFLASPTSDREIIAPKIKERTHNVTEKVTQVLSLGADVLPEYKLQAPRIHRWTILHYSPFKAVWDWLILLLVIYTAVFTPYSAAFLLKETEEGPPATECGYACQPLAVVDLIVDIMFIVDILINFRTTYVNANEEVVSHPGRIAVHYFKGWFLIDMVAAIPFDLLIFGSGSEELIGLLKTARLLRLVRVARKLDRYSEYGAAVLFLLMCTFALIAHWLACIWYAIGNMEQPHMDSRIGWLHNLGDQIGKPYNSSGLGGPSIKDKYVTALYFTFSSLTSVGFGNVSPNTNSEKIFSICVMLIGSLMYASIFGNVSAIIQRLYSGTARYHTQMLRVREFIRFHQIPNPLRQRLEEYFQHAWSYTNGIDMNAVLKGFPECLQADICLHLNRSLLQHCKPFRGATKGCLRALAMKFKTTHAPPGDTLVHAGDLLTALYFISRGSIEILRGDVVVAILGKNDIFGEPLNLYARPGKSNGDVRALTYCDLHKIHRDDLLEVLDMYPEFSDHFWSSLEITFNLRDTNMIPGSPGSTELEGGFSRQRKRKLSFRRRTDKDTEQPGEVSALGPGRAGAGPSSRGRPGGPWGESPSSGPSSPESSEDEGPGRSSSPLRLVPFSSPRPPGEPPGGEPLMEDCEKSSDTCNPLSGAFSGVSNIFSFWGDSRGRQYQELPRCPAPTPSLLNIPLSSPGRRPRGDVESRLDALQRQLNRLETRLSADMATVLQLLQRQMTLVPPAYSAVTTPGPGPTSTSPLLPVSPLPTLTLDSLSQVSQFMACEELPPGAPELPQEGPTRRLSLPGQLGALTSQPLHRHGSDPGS

[20] = Toxicity in NOD-SCID mouse assessed as appearance of large nucleus in tumor at 60 mg/kg, po measured every 2 days for 21 days by H and E staining based analysis; assay type: organism-based; settings: in vivo, 504 h, time 21 day
MM1.S [21] = assay: Antiproliferative activity against human MM1.S cells assessed as inhibition of cell growth incubated for 72 hrs by celltiter-glo assay; assay type: functional, cell-based
LoVo = assay: Antiproliferative activity against human LoVo cells assessed as inhibition of cell growth incubated for 72 hrs by celltiter-glo assay; assay type: functional, cell-based
MM1.S [22] = assay: Antitumor activity against human MM1.S cells xenografted in NOD-SCID mouse assessed as tumor growth inhibition at 15 mg/kg, po qd measured upto 21 days; assay type: functional; settings: 504 h, time <= 21 day, read-out: TGI
[23] = Toxicity in BALB/c mouse assessed as organ abnormalities at 30 to 60 mg/kg, po administered once daily for 21 days; assay type: organism-based; settings: in vivo, 504 h, dose 30-60 mg/kg, time 21 day
[24] = target: Ran-specific GTPase-activating protein (Homo sapiens, UniProt P43487); assay: Inhibition of RANBP1 nuclear export in human U2OS cells assessed as increase in fluorescence intensity measured for 15 mins by DAPI staining based fluorescence microscopic analysis; assay type: cell-based
Chain of Ran-specific GTPase-activating protein (P43487 whole entry): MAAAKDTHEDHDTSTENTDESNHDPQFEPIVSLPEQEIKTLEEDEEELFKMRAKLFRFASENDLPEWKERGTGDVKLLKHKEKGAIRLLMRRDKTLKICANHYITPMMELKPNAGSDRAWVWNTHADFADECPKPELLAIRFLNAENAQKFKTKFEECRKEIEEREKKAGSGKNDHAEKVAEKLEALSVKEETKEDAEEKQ

[25] = Half life in male Sprague-Dawley rat at 15 mg/kg, po measured upto 30 hrs by LC-MS/MS analysis; assay type: ADME, organism-based; settings: in vivo
[26] = Metabolic stability in dog liver microsomes assessed as half life measured upto 60 mins in presence of NADPH by LC/MS-MS analysis; assay type: ADME, Canis lupus familiaris, Microsome
[27] = Oral bioavailability in male Sprague-Dawley rat at 30 mg/kg measured upto 30 hrs by LC-MS/MS analysis; assay type: ADME, organism-based; settings: in vivo
[28] = Oral bioavailability in male Sprague-Dawley rat at 15 mg/kg measured upto 30 hrs by LC-MS/MS analysis; assay type: ADME, organism-based; settings: in vivo
[29] = Toxicity in BALB/c mouse assessed as side effect at 60 mg/kg, po administered once daily for 21 days; assay type: organism-based; settings: in vivo, 504 h, time 21 day
[30] = Metabolic stability in mouse liver microsomes assessed as half life measured upto 60 mins in presence of NADPH by LC/MS-MS analysis; assay type: ADME, Microsome
[31] = Toxicity in BALB/c mouse assessed as weight loss at 60 mg/kg, po administered once daily for 21 days; assay type: organism-based; settings: in vivo, 504 h, time 21 day
[32] = Half life in male Sprague-Dawley rat at 2 mg/kg, iv measured upto 30 hrs by LC-MS/MS analysis; assay type: ADME, organism-based; settings: in vivo
[33] = Tmax in male Sprague-Dawley rat at 30 mg/kg, po measured upto 30 hrs by LC-MS/MS analysis; assay type: ADME, organism-based; settings: in vivo
AN3-CA = assay: Antiproliferative activity against human AN3-CA cells assessed as inhibition of cell growth incubated for 72 hrs by celltiter-glo assay; assay type: functional, cell-based
[34] = Metabolic stability in rat liver microsomes assessed as half life measured upto 60 mins in presence of NADPH by LC/MS-MS analysis; assay type: ADME, Microsome

CONC(=O)/C(=C/n1cnc(-c2cc(C(F)(F)F)cc(C(F)(F)F)c2)n1)c1cncnc1
Activity [1]: Non-toxic | Activity (MM1.S [2]): Active | IC50 (MV4-11): 43.5 nM | IC50 [3]: 652 nM | Activity [4]: Non-toxic | IC50 (MOLM-13): 478 nM | Activity [5]: Non-toxic | microsomal CLint [6]: 8.6 µL/min/mg | Activity [7]: Non-toxic | AUC(0-t) at 30 h [8]: 1300 ng·h/mL | inhibition [9]: Active | IC50 (LAMA-84): 1480 nM | Activity [10]: Non-toxic | Activity [11]: Toxic | Cmax [12]: 899 ng/mL | AUC(0-t) at 30 h [13]: 5080 ng·h/mL | Activity [14]: Non-toxic | AUC(0-t) at 30 h [15]: 3610 ng·h/mL | IC50 (SW872): 753 nM | AUC at 6 h [16]: 2480 ng·h/mL | half-life [17]: 5.6 h | Activity [18]: Non-toxic | IC50 [19]: 18900 nM | Activity [20]: Non-toxic | IC50 (MM1.S [21]): 87.1 nM | IC50 (LoVo): 2040 nM | inhibition in vivo at 15 mg/kg (MM1.S [22]): 80.5% | Activity [23]: Non-toxic | IC50 [24]: 620 nM | half-life [25]: 4 h | half-life [26]: > 2 h | bioavailability [27]: 46.3% | bioavailability [28]: 52.1% | Activity [29]: Non-toxic | half-life [30]: > 2 h | Activity [31]: Non-toxic | half-life [32]: 4.2 h | Tmax [33]: 0.3 h | IC50 (AN3-CA): 1080 nM | half-life [34]: > 2 h
